Counter-ions that a name gives are not always drawn. Like-named read-outs stand apart in the source and are kept apart here.
Columns and labels:
Parameters in all cases: species or system AML cell lines (8); Primary HTS, single concentration about 10 uM, Cell Titer Glo viability; log10 luminescence, per cent inhibition relative to cycloheximide control
Details in all cases: 72 h, relative to cycloheximide control, log10 luminescence, inhibitor
[1] = system: CHRF288-11
[2] = system: CMK
[3] = system: CMS
[4] = system: M07e
[5] = system: ML-2
[6] = system: MOLM-13
[7] = system: MV4-11
[8] = system: U937

SMILES	CHRF288-11 %inh [1] [%]	CMK %inh [2] [%]	CMS %inh [3] [%]	M07e %inh [4] [%]	ML-2 %inh [5] [%]	MOLM-13 %inh [6] [%]	MV4-11 %inh [7] [%]	U937 %inh [8] [%]	CHRF288-11 %inh ([1]; CHRF288-11 %inh, 10 µM) [%]	CMK %inh ([2]; CMK %inh, 10 µM) [%]	CMS %inh ([3]; CMS %inh, 10 µM) [%]	M07e %inh ([4]; M07e %inh, 10 µM) [%]	ML-2 %inh ([5]; ML-2 %inh, 10 µM) [%]	MOLM-13 %inh ([6]; MOLM-13 %inh, 10 µM) [%]	MV4-11 %inh ([7]; MV4-11 %inh, 10 µM) [%]	U937 %inh ([8]; U937 %inh, 10 µM) [%]
C[C@@H](O)[C@@H]1NC(=O)[C@H](CCCCN)NC(=O)[C@@H](Cc2c[nH]c3ccccc23)NC(=O)[C@H](Cc2ccccc2)NC(=O)[C@@H](NC(=O)[C@H](N)Cc2ccccc2)CSSC[C@@H](C(=O)N[C@H](CO)[C@@H](C)O)NC1=O [SJ000520506-1, OCTREOTIDE ACETATE]	5.062	-5.736	0.6202	-0.4484	0.4552	0.6504	0.9577	-3.486	–	–	–	–	–	–	–	–
O=C1NC(=O)/C(=C\c2ccc3nccnc3c2)S1 [SJ000534768-3, PI 3-K-GAMMA-INHIBITOR | 648450-29-7 | AS-605240 | AS605240 | PI 3-KY INHIBITOR]	–	–	–	–	–	–	–	–	-5.698	-0.8645	-2.146	2.407	-0.2464	3.402	0.09671	-0.7574
O=C1NC(=O)/C(=C\c2ccc3nccnc3c2)S1 [SJ000534768-4, PI 3-K-GAMMA-INHIBITOR | 648450-29-7 | AS-605240 | AS605240 | PI 3-KY INHIBITOR]	–	–	–	–	–	–	–	–	-3.707	2.377	2.882	2.923	1.156	1.092	-0.9615	0.2634
CCOC(=O)C1=C(C)NC(C)=C(C(=O)OCC)C1c1ccccc1/C=C/C(=O)OC(C)(C)C [SJ000541098-2, LACIDIPINE]	–	–	–	–	–	–	–	–	-1.312	1.983	-2.509	-0.9057	5.24	10.16	6.96	12.91
CCOC(=O)C1=C(C)NC(C)=C(C(=O)OCC)C1c1ccccc1/C=C/C(=O)OC(C)(C)C [SJ000541098-3, LACIDIPINE]	–	–	–	–	–	–	–	–	-0.4968	6.472	2.32	5.059	5.833	4.748	8.929	2.874
CC1(COc2ccc(CC3SC(=O)NC3=O)cc2)CCCCC1 (centres unmarked) [SJ000546494-1, CIGLITAZONE]	3.672	0.5377	-1.931	-0.4942	1.382	-0.9508	4.011	0.7442	–	–	–	–	–	–	–	–
Cc1cccc(Nc2cc(Cl)nc(SCC(=O)O)n2)c1C [SJ000546497-1, WY 14643 | WY-14643 | WY-14643 (PIRINIXIC ACID)]	0.5396	-0.2043	-0.6556	2.884	1.805	0.03488	2.638	0.764	–	–	–	–	–	–	–	–
CC(C)(c1ccc(OCC2CO2)cc1)c1ccc(OCC2CO2)cc1 (centres unmarked) [SJ000546498-1, BADGE]	3.756	0.4379	-0.9549	-0.5797	0.3622	-1.249	2.685	-0.2101	–	–	–	–	–	–	–	–
Oc1ccc(-c2c(-c3ccccc3)nn3c(C(F)(F)F)cc(C(F)(F)F)nc23)cc1 [SJ000546500-1, PHTPP]	-1.975	-2.936	-0.8785	-1.02	-0.1539	-1.733	0.8155	-1.023	–	–	–	–	–	–	–	–
CCCCCS(=O)(=O)CCCCCCCCCCn1c(-c2ccc(O)cc2)c(C)c2cc(O)ccc21 [SJ000546504-1, ZK 164015]	8.284	21	7.105	14.67	14.83	28.37	19.87	10.37	–	–	–	–	–	–	–	–
CCC[C@@H]1CC2=CC(=O)CC[C@]2(C)[C@H]2CC[C@@]3(C)[C@@H](CC[C@@]34CCC(=O)O4)[C@H]12 [SJ000546508-1, RU 26752]	-0.7374	-5.773	0.3867	0.5508	2.095	-0.802	1.882	-0.3202	–	–	–	–	–	–	–	–
CCC[C@@H]1CC2=CC(=O)CC[C@]2(C)[C@H]2CC[C@@]3(C)[C@@H](CC[C@@]3(O)CCC(=O)O)[C@H]12 [SJ000546509-1, RU 28318]	5.992	5.542	2.41	2.635	3.121	5.695	0.6325	-0.6477	–	–	–	–	–	–	–	–
COC(=O)/C=C/c1cccc(N(Cc2ccc(-c3ccc(N(C)C)cc3)cc2)C(=O)C2CCCCC2)c1 [SJ000546510-1, FEXARAMINE]	-3.158	-0.2535	0.8467	1.611	2.174	-2.683	-0.6838	-1.175	–	–	–	–	–	–	–	–
Clc1ccc(-c2nc3sccn3c2/C=N/OCc2ccc(Cl)c(Cl)c2)cc1 [SJ000546521-1, CITCO]	8.549	-3.05	0.2267	0.1835	-0.03995	-1.049	0.01601	-0.9685	–	–	–	–	–	–	–	–
Cc1ccc(C(=O)Cn2c3c(sc2=N)CCCC3)cc1 [SJ000546523-1, PIFITHRIN-ALPHA HYDROBROMIDE | PIFITHRIN-ALPHA HYDROBROMIDE | | PIFITHRIN-ALPHA (PFTALPHA)]	6.15	3.731	0.7689	2.173	-0.3437	4.765	4.352	-0.03033	–	–	–	–	–	–	–	–
CN1C(=O)CC(C)(c2ccccc2)C1=O (centres unmarked) [SJ000552432-1, METHSUXIMIDE]	16.75	0.7754	-2.292	28	19.33	28.78	59.35	35.22	–	–	–	–	–	–	–	–
COc1cc2c(cc1OC)C(=O)C(CC1CCN(Cc3ccccc3)CC1)C2 (centres unmarked) [SJ000555704-1, DONEPEZIL HYDROCHLORIDE]	3.237	10.45	6.718	3.462	0.002244	1.714	4.602	1.153	–	–	–	–	–	–	–	–
C[C@]12C=CC(=O)C=C1CC[C@@H]1[C@@H]2[C@@H](O)C[C@@]2(C)[C@H]1CC[C@]2(O)C(=O)COP(=O)(O)O [SJ000555709-1, PREDNISOLONE SODIUM PHOSPHATE]	1.976	1.948	9.04	-1.037	-0.8263	2.036	1.456	2.195	–	–	–	–	–	–	–	–
Cc1nnc(C(C)C)n1[C@@H]1C[C@H]2CC[C@@H](C1)N2CC[C@H](NC(=O)C1CCC(F)(F)CC1)c1ccccc1 [SJ000555710-1, MARAVIROC]	3.241	-4.287	-2.259	0.2532	-1.344	-2.386	0.334	-1.411	–	–	–	–	–	–	–	–
